In patent US9730912B2, “Pharmaceutical compounds” (ASTEX THERAPEUTICS LIMITED, priority 2006, dated 2017):

How the values were obtained:
[1] = Solid-state stability of crystalline L-lactate salt forms (storage in air / 40° C. and 75% RH, XRPD); assay type: physicochemical; settings: solid L-lactate 1:1 salt of Compound (VIII); in air, or at 40° C. and 75% RH
From the text: Samples for X-ray powder diffraction (XRPD) data collection were gently ground by marble mortar and loaded into a crystallographic capillary (from Hampton Research, Quartz or Glass Type 10, 0.4 or 0.7 mm diameter). Diffraction patterns were collected at room temperature using CuKα radiation (λ=1.5418 Å) from a Rigaku rotating anode RU3HR, Osmic blue confocal optics, ¼ c goniometer and a Rigaku HTC image plate detector. 2D images were collected while spinning φ axis with a detector to crystal distance of 250 mm. Data collection was controlled by CrystalClear software and 2D images were converted to 1D plot (2θ vs. Intensity) by Datasqueeze (intensity averaged over the azimuthal angle 0≦χ≦360° for 2θ range 3-30° in 0.02° steps). In house program AstexXRPD was used for manipulation and visualisation of 1D XRPD patterns.

[2] = molecular target: T1, human Hsp90α N-terminal domain (Homo sapiens, UniProt P07900); assay: Isothermal titration calorimetry (ITC) binding to human Hsp90; settings: 25 mM Tris, 100 mM NaCl, 1 mM MgCl2, 1 mM TCEP, 5% DMSO, pH 7.4
T1 construct: Cloning, expression, and purification of the Human Hsp90a N-terminal domain were performed according to published methods; made in house
Protocol: The ability of the compounds of the invention to bind to human Hsp90 proteins was determined using isothermal titration calorimetry.
Isothermal titration calorimetry (ITC) experiments were performed with a VP-ITC titration calorimeter (Microcal Inc., Northampton, Mass., USA). […] All solutions were filtered and degassed prior to a titration being carried out. The enthalpy change resulting from each injection of ligand was obtained through integration of the calorimetric signal. Data were analysed using Origin 7.0 (Microcal Software Inc., Northampton, Mass.). Heats of dilution were estimated using the final injections of each individual titration and subtracted before data fitting. Different ITC experimental formats were employed in order to obtain compound dissociation constants (Kd's) over a wide range of affinities. […] In this type of experiment the stoichiometry parameter (N) was locked at 1 for data fitting.

stability of crystalline form [1]	Kd [2]	Structure (SMILES)
stable in air	–	CC(C)c1cc(C(=O)N2Cc3ccc(CN4CCN(C)CC4)cc3C2)c(O)cc1O.C[C@H](O)C(=O)O [form FL2, (2,4-dihydroxy-5-isopropyl-phenyl)-[5-(4-methyl-piperazin-1-ylmethyl)-1,3-dihydro-isoindol-2-yl]-methanone L-lactate salt]
–	< 100 nM	CC(C)c1cc(C(=O)N2Cc3ccc(CN4CCN(C)CC4)cc3C2)c(O)cc1O [Example 55, (2,4-dihydroxy-5-isopropyl-phenyl)-[5-(4-methyl-piperazin-1-ylmethyl)-1,3-dihydro-isoindol-2-yl]-methanone]
transforms in air into form FL1	–	CC(C)c1cc(C(=O)N2Cc3ccc(CN4CCN(C)CC4)cc3C2)c(O)cc1O.C[C@H](O)C(=O)O [Form FL3, (2,4-dihydroxy-5-isopropyl-phenyl)-[5-(4-methyl-piperazin-1-ylmethyl)-1,3-dihydro-isoindol-2-yl]-methanone L-lactate salt]

Structure (SMILES)	stability of crystalline form [1]	Kd [2]
CC(C)c1cc(C(=O)N2Cc3ccc(CN4CCN(C)CC4)cc3C2)c(O)cc1O.C[C@H](O)C(=O)O [Form FL1, (2,4-dihydroxy-5-isopropyl-phenyl)-[5-(4-methyl-piperazin-1-ylmethyl)-1,3-dihydro-isoindol-2-yl]-methanone L-lactate salt]	stable in air and at 40 °C and 75% RH for at least one month	–
